Measured values published in patent US12642857B2, “Degradation of AKT by conjugation of ATP-competitive AKT inhibitor GDC-0068 with E3 ligase ligands and methods of use” (DANA-FARBER CANCER INSTITUTE, INC., priority 2019, dated 2026).

Experiments:
[1] = test system: ZR-75-1, T47D, LNCaP, MCF-7 cells; experiment: Growth inhibition rate (GR) assay in cell lines sensitive to AKT inhibition; format: cell-based; settings: MCF-7, 72-hour treatment (FIG. 6A-6D)
Source text: (§1) FIG. 6A-FIG. 6F are a set of graphs that show growth inhibition rate (GR) values across concentrations in ZR-75-1 (FIG. 6A), T47D (FIG. 6B), LNCaP (FIG. 6C), MCF-7 (FIG. 6D), MDA-MB-468 (FIG. 6E), and HCC1937 (FIG. 6F) cells after 72-hour treatment with GDC-0068 (blue), inventive bifunctional compound 10 (red), bifunctional compound 10-Me (negative control) (green), and lenalidomide (orange). Error bars represent the standard deviation of three technical replicates.

[2] = test system: phospho-PRAS40 (T246), phospho-GSK3I3 (S9), phospho-S6 (S240/244); experiment: Immunoblot of downstream signaling (pPRAS40, pGSK3, pS6) in T47D and MDA-MB-468 cells; format: cell-based, human
Experimental: Solid vertical white line indicates samples run on separate gels. […] Solid vertical white line indicates samples run on separate gels. Cells were plated at 250,000 cells per mL (MDA-MB-468, MOLT4, IGROV1, PC3, and Jurkat) or 200,000 cells per mL (T47D) in 2 mL per well of RPMI or DMEM media with 10% serum in 6-well treated tissue culture plates (Greiner, Cat #TCG-657160) or 60 mm treated tissue culture plates (Corning®, Cat #430166) and incubated overnight. The next day, cells were treated with the indicated compounds at the appropriate concentration and protein lysates were harvested at the times specified. Cells were washed once in 1×PBS then lysed in RIPA buffer (150 mM Tris-HCl, 150 mM NaCl, 0.5% (w/v) sodium deoxycholate, 1% (v/v) NP-40, pH 7.5) containing 0.1% (w/v) sodium dodecyl sulfate, 1 mM sodium pyrophosphate, 20 mM sodium fluoride, 50 nM calyculin, and 0.5% (v/v) protease inhibitor cocktail (Sigma-Aldrich®) for 15 minutes. Cell extracts were precleared by centrifugation at 14,000 rpm for 10 minutes at 4° C. The Bio-Rad DC protein assay was used to assess protein concentration, and sample concentration was normalized using SDS sample buffer. Lysates were resolved on acrylamide gels by SDS-polyacrylamide gel electrophoresis and electrophoretically transferred to nitrocellulose membrane (BioRad) at 100 volts for 90 minutes. Membranes were blocked in 5% (w/v) nonfat dry milk in tris-buffered saline (TBS) buffer for 1 hour then incubated with specific primary antibodies diluted in 5% (w/v) nonfat dry milk in TBS-T (TBS with 0.05% Tween®-20) at 4° C. overnight, shaking. The next day, membranes were washed with TBS-T then incubated for 1 hour at room temperature with fluorophore-conjugated secondary antibodies (LI-COR® Biosciences). The membrane was washed again with TBS-T then imaged with a LI-COR® Odyssey® CLx Imaging System (LI-COR® Biosciences).

phosphorylated PRAS40 [3] = experiment: Immunoblot of phosphorylated PRAS40 in MDA-MB-468 cells; format: cell-based, human; settings: 24-hour treatment
Experimental: (§2) MDA-MB-468 (human breast cancer cell line) cells were maintained in RPMI 1640 (Wisent Bioproducts) supplemented with 10% FBS (Thermo Fisher Scientific) and MCF10A (human breast epithelial cell line) cells were maintained in Dulbecco's modified Eagle's medium (DMEM)/Ham's F12 (Wisent Bioproducts) supplemented with 5% equine serum (Fisher), insulin (10 μg/ml) (Life Technologies), hydrocortisone (500 ng/ml) (Sigma-Aldrich®), epidermal growth factor (20 ng/ml) (R&D Systems), and cholera toxin (100 ng/ml) (List Biological Lab). MDA-MB-468 and MCF10A cells were seeded at 250,000 cells/mL and 200,000 cells/mL, respectively. The following day cells were treated with inventive bifunctional compounds. After 24 hours, cells were washed with phosphate-buffered saline at 4° C. and lysed in radioimmunoprecipitation assay (RIPA) buffer (150 mM Tris-HCl, 150 mM NaCl, 0.5% (w/v) sodium deoxycholate, 1% (v/v) NP-40, pH 7.5) containing 0.1% (w/v) sodium dodecyl sulfate, 1 mM sodium pyrophosphate, 20 mM sodium fluoride, 50 nM calyculin, and 0.5% (v/v) protease inhibitor cocktail (Sigma-Aldrich®)). Cell extracts were precleared by centrifugation at 14,000 rpm for 10 minutes at 4° C. The Bio-Rad DC protein assay was used to assess protein concentration, and sample concentration was normalized using SDS sample buffer. […] Images were stored and analyzed using ImageStudioTM (LI-COR®) software.

phosphorylated PRAS40 [4] = experiment: Immunoblot of phosphorylated PRAS40 in MCF10A cells; format: cell-based, human; settings: 24-hour treatment
Experimental: as §2, with “software. […]” for “software.”

ZR-75-1 cells = experiment: Growth inhibition rate (GR) assay in ZR-75-1 cells; format: cell-based; settings: 72-hour treatment (FIG. 6A)
Source text: as §1

[5] = T47D and MDA-MB-468 cells, 250 nM (FIG. 7C-7D)

| SMILES | Anti-proliferative effects [1] | Duration of reduction of pPRAS40 levels [2, 5] | Inhibition of pPRAS40 compared with compound 10 [2, 5] | Phosphorylation of PRAS40, GSK3I3 and S6 ([2]; T47D and MDA-MB-468 cells, 250 nM, 24 hours (FIG. 7A-7B)) | pPRAS40 levels after compound washout ([2]; T47D or MDA-MB-468 cells, 12 h treatment at 250 nM, then washout (FIG. 7E-7F)) | Phosphorylated PRAS40 signal (phosphorylated PRAS40 [3]) | Phosphorylated PRAS40 signal (phosphorylated PRAS40 [4]) | GR50 (ZR-75-1 cells) |
| --- | --- | --- | --- | --- | --- | --- | --- | --- |
| Nc1cccc2c1CN(C1CCC(=O)NC1=O)C2=O (centres unmarked) [lenalidomide] | did not have strong anti-proliferative effects | – | – | – | – | – | – | – |
| CC(C)NC[C@@H](C(=O)N1CCN(c2ncnc3c2[C@H](C)C[C@H]3O)CC1)c1ccc(Cl)cc1 [GDC-0068] | – | shorter | less-pronounced inhibition of pPRAS40 | weaker responses | rebound of pPRAS40 | reduction of phosphorylated proline-rich AKT substrate of 40 kDa (PRAS40) signal | reduction of phosphorylated PRAS40 signal | comparable GR50 value |
